Assay results: publication PMC7796559, “Connecting the conformational behavior of cyclic octadepsipeptides with their ionophoric property and membrane permeability” (Organic & biomolecular chemistry, 2020)
Where two headings read alike, the source gives them in different places. Non-standard residues stand in square brackets, D forms with d. Residues, ends and D or L forms follow the SMILES beside them. dPhLac = O=C(O)[C@H](O)Cc1ccccc1; NMeL = CN[C@@H](CC(C)C)C(=O)O; dLac = C[C@@H](O)C(=O)O

What was measured:
nematodes = conditions: cited from earlier work
[1] = Cation binding in apolar solvent (chloroform) by NMR; assay type: physicochemical; conditions: CDCl3; solid KSCN and sonication (1) or saturated KSCN solution in D2O, phase separation (2)
Procedure: It is known that valinomycin, a cyclic dodecadepsipeptide, as well as some crown ethers can bind cations even in an apolar solvent.[59]–[61] This ability is an indirect evidence that the ion-bound complex may exist inside the membrane interior, i.e. that ion transport across a membrane is possible. To assess if the cyclic octadepsipeptides are also able to bind cations in an apolar solvent, KSCN was added to a solution of 1 in chloroform and sonicated for several hours.

efflux transporter P-gp = tested on: efflux transporter P-gp; set-up: method as in PMID 25131706; conditions: cited from earlier work
[2] = Site-to-site exchange rates from EXSY peaks in EASY-ROESY; assay type: physicochemical; conditions: for kex / k1 / k2: EASY-ROESY, mixing time 100 ms, CDCl3; for k1 / k2: site-to-site exchange rate
Procedure: Following ref. [76] and [77], site-to-site rates were determined in a straightforward way by taking the logarithm of matrix A = M × M0^−1 containing the volumes of cross- and diagonal peaks of the exchanging sites (Hα of Mle^2, Mle^6 and Mle^26) divided by their magnetic fraction M0 (i.e. the relative intensities of the corresponding resonances in the ^1H NMR spectrum) as an approximation of M(0): (1) M=e^Ltm×M0 (2) A=(IAA/M0AIAB/M0BIAC/M0CIBA/M0AIBB/M0BIBC/M0CICA/M0AICB/M0BICC/M0C) (3) 1/tmln(A)=(kBA+kCA−R1kABkACkBA−kAB−R10kBC0−kAC−R1)
L is the difference between the kinetic matrix K containing the site-to-site rate constants and the relaxation matrix R, tm is the mixing time used in the ROESY experiment, and Ri are the auto-relaxation rates of the exchanging sites in the symmetric (A) and asymmetric (B, C) conformations.
EXSY peak volumes extracted from the ROESY spectrum (shown schematically in Fig. 13) and the magnetic fractions in the 1H NMR spectrum are inserted in matrix A (eqn 4). Site-to-site rates are obtained by taking the logarithm of matrix A and dividing the result by the mixing time (0.1 s) (eqn 5): kAB = kAC = 0.09 s^−1 and kBA = kCA = 0.16 s^−1 (averaged rates). Calculations were carried out in Mathematica 12.0.[78] (4) A=(77.9/11.52/1.51.55/1.51.59/1236/1.50/1.51.75/10/1.5200/1.5) (5) 1/0.1ln(A)=(43.55240.090.100.1450.580.000.170.0048.9)

[3] = PAMPA with and without potassium salt; assay type: in vitro ADME; conditions: for recovery at 10 μM / Papp at 10 µM / Papp: PAMPA; for PAMPA permeability (in words): independent of the addition of potassium salt
Procedure: PAMPA was performed using a 96-well filter donor plate with 0.45 μm hydrophobic Immobilon-P membrane supports (Millipore MAIPNTR10) and a 96-well Teflon acceptor plate (Millipore MSSACCEPTOR). The donor plate was prepared by applying 5 μL of 1% (w/v) soybean lecithin (90%, Alfa Aesar) in n-dodecane to each filter. The acceptor plate was prepared by addition of 300 μl of pH = 7.4 phosphate-buffered saline (PBS) with 5% DMSO to each well. Donor solutions composed of PBS with 5% DMSO, 10 μM carbamazepine standard, and 10 μM compound 1, 2 or 8 were prepared with and without additional KCl (0.27 mM or 100.27 mM K^+ concentration) before addition of 150 μl to each donor well, with all conditions run in quadruplicate. The donor plate was then loaded into the acceptor plate and was left in a sealed, damp chamber at 25 °C for approximately 17 hours (exact times recorded and used in calculation of Pe). The plates were then separated, and 100 μl of solution from each well was transferred to another plate for LC-MS analysis. Permeabilities were calculated identically to a previous study.[80]

ryanodine-binding = tested on: ryanodine-binding; set-up: method as in PMID 20057513; conditions: cited from earlier work
mycobacteria = tested on: mycobacteria; set-up: method as in PMID 5879163; conditions: cited from earlier work
Caco-2 = tested on: Caco-2; set-up: method as in PMID 26067057, PMID 32121188; conditions: cited from earlier work
[4] = set-up: method as in PMID 26067057; conditions: PAMPA; cited from earlier work
[5] = set-up: method as in PMID 22138252, PMID 24061379; conditions: cited from earlier work
[6] = set-up: method as in PMID 22138252, PMID 24061379; conditions: cited from earlier work; remark: listed apart in the source
[7] = pH 7.4, PAMPA, + 100 mM KCl, read-out: Average Recovery Rate
[8] = pH 7.4, PAMPA, without additional KCl, read-out: Average Recovery Rate
[9] = without additional KCl (0.27 mM K+), PBS pH 7.4 with 5% DMSO, 10 μM compound, approx. 17 hours, 25 °C, read-out: Average Permeability with standard deviation in brackets
[10] = worked example, mixing time 0.1 s

## CC(C)C[C@H]1C(=O)O[C@H](Cc2ccccc2)C(=O)N(C)[C@@H](CC(C)C)C(=O)O[C@H](C)C(=O)N(C)[C@@H](CC(C)C)C(=O)N2CCC[C@@H]2C(=O)N2CCC[C@H]2C(=O)O[C@H](C)C(=O)N1C [compound 9] (cyclo([dLac][NMeL][dPhLac][NMeL][dLac][NMeL][dP]P))
nematodes
  Biological activity higher by a factor compared to 1: 2

## CC(C)C[C@H]1C(=O)O[C@H](Cc2ccc(N3CCOCC3)cc2)C(=O)N(C)[C@@H](CC(C)C)C(=O)O[C@H](C)C(=O)N(C)[C@@H](CC(C)C)C(=O)O[C@H](Cc2ccc(N3CCOCC3)cc2)C(=O)N(C)[C@@H](CC(C)C)C(=O)O[C@H](C)C(=O)N1C [Emodepside (2), reference compound]
nematodes
  Anthelmintic activity relative to PF1022A (in words): increased anthelmintic activity
[1]
  Conformation detected in chloroform after contact with KSCN: the symmetric conformation is present almost exclusively
Efflux transporter P-gp
  Substrate of the efflux transporter P-gp: substrate
[2]
  kex: 0.18 s⁻¹
  k1: 0.12 s⁻¹
  k2: 0.06 s⁻¹
[3]; [7]
  recovery at 10 μM: 27.3%
[3]; [8]
  recovery at 10 μM: 78.7%
[3]
  PAMPA permeability (in words): no permeability was detected

## CC(C)C[C@H]1C(=O)O[C@H](Cc2ccccc2)C(=O)N(C)[C@@H](CC(C)C)C(=O)O[C@H](C)C(=O)N(C)N(CC(C)C)C(=O)O[C@H](Cc2ccccc2)C(=O)N(C)N(CC(C)C)C(=O)O[C@H](C)C(=O)N1C [Bis-aza analog (8)]
nematodes
  Biological activity weaker by a factor compared to 1: 5–10
[2]
  kex: 0.19 s⁻¹
  k1: 0.17 s⁻¹
  k2: 0.02 s⁻¹
[3]; [7]
  recovery at 10 μM: 6.8%
[3]; [8]
  recovery at 10 μM: 26.2%
[3]; [9]
  Papp at 10 µM: 0.8 nm/s
[3]
  PAMPA permeability (in words): no permeability was detected

## CCCCC[C@H]1OC(=O)[C@H](C)N(C)C(=O)[C@@H](CCCCC)OC(=O)[C@H](C)N(C)C(=O)[C@@H](CCCCC)OC(=O)[C@H](C)N(C)C(=O)[C@@H](CCCCC)OC(=O)[C@H](C)N(C)C1=O [compound 7, verticilide]
ryanodine-binding
  Ryanodine binding (in words): ryanodine-binding inhibitor

## CC(C)C[C@H]1C(=O)O[C@H](C(C)C)C(=O)N(C)[C@@H](CC(C)C)C(=O)O[C@H](C(C)C)C(=O)N1C [compound 4, cyclo-(N-methyl L-leucine D-hydroxyisovaleric acid)2]
mycobacteria
  Activity against mycobacteria (in words): no activity

## CC(C)CC1C(=O)OC(Cc2ccccc2)C(=O)N(C)C(CC(C)C)C(=O)OC(C)C(=O)N(C)C(CC(C)C)C(=O)OC(Cc2ccccc2)C(=O)N(C)C(CC(C)C)C(=O)OC(C)C(=O)N1C (single isomer, unassigned) [enantiomer of PF1022A]
nematodes
  Anthelmintic activity (in words): no anthelmintic activity

## NC(=O)N1c2ccccc2C=Cc2ccccc21 [Carbamazepine, carbamazepine, reference compound]
[3]; pH 7.4, 10 μM standard in donor solutions, with and without 100 mM KCl, read-out: Permeability of PAMPA control
  Papp at 10 µM: 79.4 to 111 nm/s
[3]; pH 7.4, 10 μM standard in donor solutions, with and without 100 mM KCl, read-out: Recovery rate of PAMPA control
  recovery at 10 μM: 85.4 to 200%

## CC(C)C[C@H]1C(=O)O[C@H](Cc2ccccc2)C(=S)N(C)[C@@H](CC(C)C)C(=O)O[C@H](C)C(=S)N(C)[C@@H](CC(C)C)C(=O)O[C@H](Cc2ccccc2)C(=S)N(C)[C@@H](CC(C)C)C(=O)O[C@H](C)C(=S)N1C [compound 10]
nematodes
  Activity increased (times) compared to 1: 2.5

## CC(C)[C@H]1C(=O)O[C@H](C(C)C)C(=O)N(C)[C@@H](C(C)C)C(=O)O[C@H](C(C)C)C(=O)N(C)[C@@H](C(C)C)C(=O)O[C@H](C(C)C)C(=O)N1C [Enniatin B, enniatin B]
Caco-2
  Permeability in Caco-2 permeability assay: 6100 nm/s
[4]
  log Pe: −4.73

## CC(C)C[C@H]1C(=O)O[C@H](Cc2ccc(I)cc2)C(=O)N(C)[C@@H](CC(C)C)C(=O)O[C@H](C)C(=O)N(C)[C@@H](CC(C)C)C(=O)O[C@H](Cc2ccccc2)C(=O)N(C)[C@@H](CC(C)C)C(=O)O[C@H](C)C(=O)N1C [Mono-iodo analog (11)]
[2]
  kex: 0.26 s⁻¹
  k1: 0.17 s⁻¹
  k2: 0.09 s⁻¹

## CC(C)C1OC(=O)C(C(C)C)N(C)C1=O (stereo not drawn) [compound 3, 3,6-di-(propan-2-yl)-4-methyl-morpholine-2,5-dione]
[5]
  Antioxidant activity (in words): moderate
[6]
  Antimicrobial activity (in words): moderate

## CC(C)CC1C(=O)OC(Cc2ccccc2)C(=O)N(C)C(CC(C)C)C(=O)OC(C)C(=O)N(C)C(CC(C)C)C(=O)OC(Cc2ccccc2)C(=O)N(C)C(CC(C)C)C(=O)OC(C)C(=O)N1C (stereo not drawn) [PF1022A (1)]
[1]
  Conformation detected in chloroform after contact with KSCN: only the symmetric conformation could be detected
[2]
  kex: 0.25 s⁻¹
  k1: 0.16 s⁻¹
  k2: 0.09 s⁻¹
[2]; [10]
  kAB = kAC (averaged site-to-site rate): 0.09 s⁻¹
  kBA = kCA (averaged site-to-site rate): 0.16 s⁻¹
[3]; pH 7.4, PAMPA, + 100 mM KCl (100.27 mM K+), PBS pH 7.4 with 5% DMSO, 10 μM compound, approx. 17 hours, 25 °C, read-out: Average Permeability with standard deviation in brackets
  Papp: 0.2 nm/s
[3]; [7]
  recovery at 10 μM: 57.4%
[3]; [8]
  recovery at 10 μM: 18.4%
[3]; [9]
  Papp: 0.6 nm/s
[3]
  PAMPA permeability (in words): no permeability was detected
